The numbers were not newly measured in patent publication US20160206673A1, “Composition and Method for Improving Sexual Performance” (priority 2015, published 2016), which cites them from elsewhere.

In data set [1] the test system is men with erectile dysfunction. To be noted: background evidence.
In data set [2] the test system is men with erectile dysfunction. To be noted: oral medications.

For `C[C@]12CC[C@H](O)CC1=CC[C@@H]1[C@@H]2CC[C@]2(C)C(=O)CC[C@@H]12` [DHEA, dehydroepiandrosterone], the “effect on sexual function / erectile dysfunction” value in data set [1] is “increases libido in women and helps erectile dysfunction in men”. `N=C(N)NCCC[C@H](N)C(=O)O` [L-arginine]: in data set [1], the “effect on sexual function / erectile dysfunction” value is recorded as “improves erectile dysfunction”; the “side effects / safety” value is “nausea, cramps and diarrhea”.

With `COC(=O)[C@@H]1[C@H]2C[C@H]3c4[nH]c5ccccc5c4CCN3C[C@@H]2CC[C@@H]1O` [Yohimbine], in data set [1], the “effect on sexual function / erectile dysfunction” value is listed as “can improve sexual dysfunction associated with a drug used to treat depression”; the “side effects / safety” value was “increased blood pressure, fast or irregular heartbeat, and anxiety”. Turning to `CCCc1nn(C)c2c(=O)[nH]c(-c3cc(S(=O)(=O)N4CCN(C)CC4)ccc3OCC)nc12` [sildenafil], the “duration of erection helping effects” value in data set [2] was “up to eight”.
